Values joined by “and” are separate entries in the source; they are usually repeats but may differ in a detail not shown here. Equal entries are not always repeated.
Test system: hAAT
Assay: Serum hAAT protein levels in PiZ mice (ELISA)
Format: in vivo, human (expressed in PiZ mice)
Conditions: for Serum hAAT normalized to Day 1 and control / Normalized serum hAAT levels / Serum hAAT normalized to day 1: PiZ mice; for Normalized serum hAAT levels: normalized to day 1 and saline control; for Serum hAAT normalized to day 1: single IV 6 mg/kg with 6 mg/kg MLP delivery polymer; for Serum hAAT normalized to day 1 and controls: female PiZ mice, single IV 8 mg/kg + 8 mg/kg MLP delivery polymer
Description: Human AAT protein levels in serum were monitored for 29 days. At the indicated times, blood samples were collected and assayed for hAAT by ELISA. Day 1 samples were collected prior to trigger administration. For mRNA analysis, 3-4 mice were euthanized at each of days 3, 8, 15, 22, and 29. For euthanized mice, cardiac stick were performed for serum isolation for AAT ELISA (200 μl serum). Half of the left lateral liver lobe was collected and snap-freeze in liquid nitrogen for RNA isolation. The remainder of the left lobes were embedded into paraffin blocks for PAS-D staining with hematoxylin as counter-stain. Serum hAAT levels in mice given AAT Duplex Pair SEQ ID NO: 5/6 were 95% reduced on day 8 and remained reduced to day 29, at which time they were 79% reduced. Mice given AAT Duplex Pair SEQ ID NO: 5/6 were euthanized at either day 3, 8, 15, 22 or 29. Mice given saline or Luciferase siRNA control (SEQ ID 7/8) were euthanized on day 29. Levels of hAAT mRNA in the livers were measured by RT-qPCR. The hAAT mRNA in mice given AAT Duplex Pair SEQ ID NO: 5/6 was reduced by 97% on day 3 and remained reduced on day 29, at which time levels were 56% reduced. The size of the globules and the area of the liver covered by globules was digitally quantitated from liver specimens stained with PAS-D. Duplex Pair SEQ ID NO: 5/6 treated mice had 70% smaller globules at day 15 and 62% smaller globules at day 29. The area of the liver covered with globules was 83% reduced on day 15 and 72% reduced on day 29 (FIG. 5).

Substance: Duplex Pair SEQ ID NO: 5/6: double-stranded AAT RNAi agent: modified antisense strand SEQ ID NO: 5 annealed to Chol-TEG sense strand SEQ ID NO: 6 (antisense TGGAACUUGGUGAUGAUAUTT; sense UAUAUAUCAUCACCAAGUUCCAT; Chol-TEG on sense strand; chemical modifications; antisense strand of dsRNA; modified_base 7 /mod_base = “2′-3′ seco corresponding nucleotide”; modified_base 2,4,6,8,10,12,14,16,18 /mod_base = “2′-deoxy-2′-fluoro corresponding nucleoside”; modified_base 3,5,9,11,13,15,17,19 /mod_base = “2′-O-methyl corresponding nucleoside”; modified_base 21 /mod_base = “5′-phosphorothioate corresponding nucleotide”; sense strand of dsRNA; modified_base 2 /mod_base = “2′-hydroxy corresponding nucleoside”; modified_base 4,6,8,10,12,14,16,18,20,22 /mod_base = “2′-deoxy-2′-fluoro corresponding nucleoside”; …)
- Serum hAAT normalized to Day 1 and control (single IV 4 mg/kg + 4 mg/kg MLP delivery polymer, Day −3): 0.70 ± 0.17
- Normalized serum hAAT levels (single IV 4 mg/kg + 4 mg/kg MLP, day 1): 1.00
- Normalized serum hAAT levels (single IV 4 mg/kg + 4 mg/kg MLP, day 8): 0.03 ± 0.01
- Normalized serum hAAT levels (single IV 4 mg/kg + 4 mg/kg MLP, day 15): 0.23 ± 0.04
- Normalized serum hAAT levels (single IV 4 mg/kg + 4 mg/kg MLP, day 20): 0.32 ± 0.05
- Normalized serum hAAT levels (single IV 4 mg/kg + 4 mg/kg MLP, day 29): 0.66 ± 0.10
- Normalized serum hAAT levels (single IV 4 mg/kg + 4 mg/kg MLP, day 36): 0.83 ± 0.06
- Normalized serum hAAT levels (single IV 4 mg/kg + 4 mg/kg MLP, day −7): 0.68 ± 0.07
- Serum hAAT normalized to Day 1 and control (single IV 4 mg/kg + 8 mg/kg MLP delivery polymer, Day 1): 1.00
- Serum hAAT normalized to Day 1 and control (single IV 4 mg/kg + 8 mg/kg MLP delivery polymer, Day 3): 0.20 ± 0.04
- Serum hAAT normalized to Day 1 and control (single IV 4 mg/kg + 8 mg/kg MLP delivery polymer, Day 8): 0.05 ± 0.01
- Serum hAAT normalized to Day 1 and control (single IV 4 mg/kg + 8 mg/kg MLP delivery polymer, Day 15): 0.09 ± 0.01
- Serum hAAT normalized to Day 1 and control (single IV 4 mg/kg + 8 mg/kg MLP delivery polymer, Day 22): 0.28 ± 0.05
- Serum hAAT normalized to Day 1 and control (single IV 4 mg/kg + 8 mg/kg MLP delivery polymer, Day 29): 0.35 ± 0.05
- Serum hAAT normalized to Day 1 and control (single IV 4 mg/kg + 8 mg/kg MLP delivery polymer, Day 35): 0.81 ± 0.12
- Serum hAAT normalized to Day 1 and control (single IV 4 mg/kg + 8 mg/kg MLP delivery polymer, Day −3): 0.73 ± 0.13
- Serum hAAT normalized to day 1 (day 1 (reference)): 1.00
- Serum hAAT normalized to day 1 (day 3, listed as AAT RNAi agent (SEQ ID NO: 5/6), 6 mg/kg): 0.326 ± 0.021 and 0.274 ± 0.072
- Serum hAAT normalized to day 1 (day 10): 0.105 ± 0.033
- Normalized serum hAAT levels (single IV 8 mg/kg + 2 mg/kg MLP, day 1): 1.00
- Normalized serum hAAT levels (single IV 8 mg/kg + 2 mg/kg MLP, day 8): 0.09 ± 0.05
- Normalized serum hAAT levels (single IV 8 mg/kg + 2 mg/kg MLP, day 15): 0.59 ± 0.16
- Normalized serum hAAT levels (single IV 8 mg/kg + 2 mg/kg MLP, day 20): 0.74 ± 0.10
- Normalized serum hAAT levels (single IV 8 mg/kg + 2 mg/kg MLP, day 29): 0.87 ± 0.20
- Normalized serum hAAT levels (single IV 8 mg/kg + 2 mg/kg MLP, day 36): 0.74 ± 0.08
- Normalized serum hAAT levels (single IV 8 mg/kg + 2 mg/kg MLP, day −7): 0.70 ± 0.15
- Normalized serum hAAT levels (single IV 8 mg/kg + 4 mg/kg MLP, day 1): 1.00
- Normalized serum hAAT levels (single IV 8 mg/kg + 4 mg/kg MLP, day 8): 0.04 ± 0.02
- Normalized serum hAAT levels (single IV 8 mg/kg + 4 mg/kg MLP, day 15): 0.27 ± 0.05
- Normalized serum hAAT levels (single IV 8 mg/kg + 4 mg/kg MLP, day 20): 0.35 ± 0.05
- Normalized serum hAAT levels (single IV 8 mg/kg + 4 mg/kg MLP, day 29): 0.80 ± 0.20
- Normalized serum hAAT levels (single IV 8 mg/kg + 4 mg/kg MLP, day 36): 1.00 ± 0.20
- Normalized serum hAAT levels (single IV 8 mg/kg + 4 mg/kg MLP, day −7): 0.70 ± 0.24
- Normalized serum hAAT levels (single IV 8 mg/kg + 8 mg/kg MLP, day 1): 1.00
- Normalized serum hAAT levels (single IV 8 mg/kg + 8 mg/kg MLP, day 8): 0.02 ± 0.00
- Normalized serum hAAT levels (single IV 8 mg/kg + 8 mg/kg MLP, day 15): 0.13 ± 0.06
- Normalized serum hAAT levels (single IV 8 mg/kg + 8 mg/kg MLP, day 20): 0.16 ± 0.04
- Normalized serum hAAT levels (single IV 8 mg/kg + 8 mg/kg MLP, day 29): 0.43 ± 0.08
- Normalized serum hAAT levels (single IV 8 mg/kg + 8 mg/kg MLP, day 36): 0.78 ± 0.23
- Normalized serum hAAT levels (single IV 8 mg/kg + 8 mg/kg MLP, day −7): 0.89 ± 0.54
- Serum hAAT normalized to day 1 and controls (mice euthanized Day 3, Day 1): 1.000
- Serum hAAT normalized to day 1 and controls (mice euthanized Day 3, Day 3): 0.255 ± 0.040
- Serum hAAT normalized to day 1 and controls (mice euthanized Day 3, Day −2): 1.068 ± 0.070
- Serum hAAT normalized to day 1 and controls (mice euthanized Day 8, Day 1): 1.000
- Serum hAAT normalized to day 1 and controls (mice euthanized Day 8, Day 3): 0.184 ± 0.025
- Serum hAAT normalized to day 1 and controls (mice euthanized Day 8, Day 8): 0.054 ± 0.004
- Serum hAAT normalized to day 1 and controls (mice euthanized Day 8, Day −2): 0.895 ± 0.129
- Serum hAAT normalized to day 1 and controls (mice euthanized Day 15, Day 1): 1.000
- Serum hAAT normalized to day 1 and controls (mice euthanized Day 15, Day 3): 0.243 ± 0.060
- Serum hAAT normalized to day 1 and controls (mice euthanized Day 15, Day 8): 0.066 ± 0.023
- Serum hAAT normalized to day 1 and controls (mice euthanized Day 15, Day 15): 0.095 ± 0.063
- Serum hAAT normalized to day 1 and controls (mice euthanized Day 15, Day −2): 0.66 ± 0.121
- Serum hAAT normalized to day 1 and controls (mice euthanized Day 22, Day 1): 1.000
- Serum hAAT normalized to day 1 and controls (mice euthanized Day 22, Day 3): 0.202 ± 0.054
- Serum hAAT normalized to day 1 and controls (mice euthanized Day 22, Day 8): 0.044 ± 0.010
- Serum hAAT normalized to day 1 and controls (mice euthanized Day 22, Day 15): 0.056 ± 0.011
- Serum hAAT normalized to day 1 and controls (mice euthanized Day 22, Day 22): 0.100 ± 0.039
- Serum hAAT normalized to day 1 and controls (mice euthanized Day 22, Day −2): 0.779 ± 0.280
- Serum hAAT normalized to day 1 and controls (mice euthanized Day 29, Day 1): 1.000
- Serum hAAT normalized to day 1 and controls (mice euthanized Day 29, Day 3): 0.238 ± 0.062
- Serum hAAT normalized to day 1 and controls (mice euthanized Day 29, Day 8): 0.052 ± 0.015
- Serum hAAT normalized to day 1 and controls (mice euthanized Day 29, Day 15): 0.057 ± 0.016
- Serum hAAT normalized to day 1 and controls (mice euthanized Day 29, Day 22): 0.103 ± 0.032
- Serum hAAT normalized to day 1 and controls (mice euthanized Day 29, Day 29): 0.209 ± 0.071
- Serum hAAT normalized to day 1 and controls (mice euthanized Day 29, Day −2): 0.653 ± 0.102
